Test results reported in the supplement of paper PMC10307832.

What was measured:
Experiment in all cases: relative viability (nuclei count vs DMSO), 5 days (fraction); higher = more cells survive
HCC-366 = tested on: HCC-366
Outline: (§1)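 Nuclei were stained with Hoechst during a one-step fixation (final 0.05% Triton X-100, 1% formaldehyde, 1 ug/ml Hoechst) carried out 5 days after dosing, then counted on 4× images. The cells, lung cancer lines in 1536-well plates, had been dosed by pin tool the day after seeding with one drug alone or a fixed anchor-drug dose plus five library-drug doses (not always all listed) in √10 steps. Relative viability is the nuclei count in treated wells divided by that in vehicle wells, and each value is the median of duplicate plates.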

NCI-H1395 = tested on: NCI-H1395
Outline: as §1

EKVX = tested on: EKVX
Outline: as §1

NCI-H2405 = tested on: NCI-H2405
Outline: as §1

NCI-H596 = tested on: NCI-H596
Outline: as §1

NCI-H647 = tested on: NCI-H647
Outline: as §1

LOU-NH91 = tested on: LOU-NH91
Outline: as §1

BEN = tested on: BEN
Outline: as §1

LC-2-ad = tested on: LC-2-ad
Outline: as §1

NCI-H2170 = tested on: NCI-H2170
Outline: as §1

NCI-H2342 = tested on: NCI-H2342
Outline: as §1

NCI-H1437 = tested on: NCI-H1437
Outline: as §1

HCC-827 = tested on: HCC-827
Outline: as §1

NCI-H1734 = tested on: NCI-H1734
Outline: as §1

HARA = tested on: HARA
Outline: as §1

NCI-H2087 = tested on: NCI-H2087
Outline: as §1

NCI-H1792 = tested on: NCI-H1792
Outline: as §1

NCI-H1355 = tested on: NCI-H1355
Outline: as §1

NCI-H661 = tested on: NCI-H661
Outline: as §1

NCI-H2009 = tested on: NCI-H2009
Outline: as §1

SK-MES-1 = tested on: SK-MES-1
Outline: as §1

SK-LU-1 = tested on: SK-LU-1
Outline: as §1

## O=C(O)c1ccc(-c2c[nH]c3ncc(-c4ccccc4)cc23)cc1C1CCCC1 + NC(=O)Nc1cc(-c2cccc(F)c2)sc1C(=O)N[C@H]1CCCNC1 [AZD7762] (partner 0.2 µM)
HCC-366; first compound 0.04 µM
  relative viability: 0.274
HCC-366; first compound 0.1265 µM
  relative viability: 0.413
HCC-366; first compound 0.4 µM
  relative viability: 0.399
HCC-366; first compound 1.265 µM
  relative viability: 0.43
NCI-H1395; first compound 0.04 µM
  relative viability: 0.416
NCI-H1395; first compound 0.1265 µM
  relative viability: 0.416
NCI-H1395; first compound 0.4 µM
  relative viability: 0.409
NCI-H1395; first compound 1.265 µM
  relative viability: 0.462
EKVX; first compound 0.04 µM
  relative viability: 0.679
EKVX; first compound 0.1265 µM
  relative viability: 0.818
EKVX; first compound 0.4 µM
  relative viability: 0.888
EKVX; first compound 1.265 µM
  relative viability: 0.593
NCI-H2405; first compound 0.04 µM
  relative viability: 0.73
NCI-H2405; first compound 0.1265 µM
  relative viability: 0.919
NCI-H2405; first compound 0.4 µM
  relative viability: 0.767
NCI-H2405; first compound 1.265 µM
  relative viability: 0.583
NCI-H596; first compound 0.04 µM
  relative viability: 1.05
NCI-H596; first compound 0.1265 µM
  relative viability: 1.21
NCI-H596; first compound 0.4 µM
  relative viability: 1.08
NCI-H596; first compound 1.265 µM
  relative viability: 1.17
NCI-H647; first compound 0.04 µM
  relative viability: 0.437
NCI-H647; first compound 0.1265 µM
  relative viability: 0.55
NCI-H647; first compound 0.4 µM
  relative viability: 0.489
NCI-H647; first compound 1.265 µM
  relative viability: 0.408
LOU-NH91; first compound 0.04 µM
  relative viability: 0.818
LOU-NH91; first compound 0.1265 µM
  relative viability: 0.866
LOU-NH91; first compound 0.4 µM
  relative viability: 0.787
LOU-NH91; first compound 1.265 µM
  relative viability: 0.769
BEN; first compound 0.04 µM
  relative viability: 0.529
BEN; first compound 0.1265 µM
  relative viability: 0.775
BEN; first compound 0.4 µM
  relative viability: 0.698
BEN; first compound 1.265 µM
  relative viability: 0.771
LC-2-ad; first compound 0.04 µM
  relative viability: 0.853
LC-2-ad; first compound 0.1265 µM
  relative viability: 0.926
LC-2-ad; first compound 0.4 µM
  relative viability: 0.835
LC-2-ad; first compound 1.265 µM
  relative viability: 0.812
NCI-H2170; first compound 0.04 µM
  relative viability: 0.933
NCI-H2170; first compound 0.1265 µM
  relative viability: 1.03
NCI-H2170; first compound 0.4 µM
  relative viability: 0.895
NCI-H2170; first compound 1.265 µM
  relative viability: 0.82
NCI-H2342; first compound 0.04 µM
  relative viability: 0.41
NCI-H2342; first compound 0.1265 µM
  relative viability: 0.467
NCI-H2342; first compound 0.4 µM
  relative viability: 0.535
NCI-H2342; first compound 1.265 µM
  relative viability: 0.459
NCI-H1437; first compound 0.04 µM
  relative viability: 1.15
NCI-H1437; first compound 0.1265 µM
  relative viability: 1.21
NCI-H1437; first compound 0.4 µM
  relative viability: 1.15
NCI-H1437; first compound 1.265 µM
  relative viability: 0.934
HCC-827; first compound 0.04 µM
  relative viability: 0.168
HCC-827; first compound 0.1265 µM
  relative viability: 0.191
HCC-827; first compound 0.4 µM
  relative viability: 0.242
HCC-827; first compound 1.265 µM
  relative viability: 0.203
NCI-H1734; first compound 0.04 µM
  relative viability: 0.534
NCI-H1734; first compound 0.1265 µM
  relative viability: 0.68
NCI-H1734; first compound 0.4 µM
  relative viability: 0.606
NCI-H1734; first compound 1.265 µM
  relative viability: 0.645
HARA; first compound 0.04 µM
  relative viability: 0.4
HARA; first compound 0.1265 µM
  relative viability: 0.596
HARA; first compound 0.4 µM
  relative viability: 0.385
HARA; first compound 1.265 µM
  relative viability: 0.554
NCI-H2087; first compound 0.04 µM
  relative viability: 1.29
NCI-H2087; first compound 0.1265 µM
  relative viability: 1.44
NCI-H2087; first compound 0.4 µM
  relative viability: 1.23
NCI-H2087; first compound 1.265 µM
  relative viability: 1.11
NCI-H1792; first compound 0.04 µM
  relative viability: 0.673
NCI-H1792; first compound 0.1265 µM
  relative viability: 0.959
NCI-H1792; first compound 0.4 µM
  relative viability: 0.94
NCI-H1792; first compound 1.265 µM
  relative viability: 0.634
NCI-H1355; first compound 0.04 µM
  relative viability: 0.729
NCI-H1355; first compound 0.1265 µM
  relative viability: 0.912
NCI-H1355; first compound 0.4 µM
  relative viability: 0.856
NCI-H1355; first compound 1.265 µM
  relative viability: 0.703

## O=C(O)c1ccc(-c2c[nH]c3ncc(-c4ccccc4)cc23)cc1C1CCCC1 + Nc1ncn([C@H]2C[C@H](O)[C@@H](CO)O2)c(=O)n1 [Decitabine] (partner 2 µM)
HCC-366; first compound 0.04 µM
  relative viability: 0.336
HCC-366; first compound 0.1265 µM
  relative viability: 0.342
HCC-366; first compound 0.4 µM
  relative viability: 0.363
HCC-366; first compound 1.265 µM
  relative viability: 0.3
NCI-H661; first compound 0.04 µM
  relative viability: 0.518
NCI-H661; first compound 0.1265 µM
  relative viability: 0.586
NCI-H661; first compound 0.4 µM
  relative viability: 0.534
NCI-H661; first compound 1.265 µM
  relative viability: 0.524
NCI-H1395; first compound 0.04 µM
  relative viability: 0.727
NCI-H1395; first compound 0.1265 µM
  relative viability: 0.697
NCI-H1395; first compound 0.4 µM
  relative viability: 0.731
NCI-H1395; first compound 1.265 µM
  relative viability: 0.728
EKVX; first compound 0.04 µM
  relative viability: 0.341
EKVX; first compound 0.1265 µM
  relative viability: 0.362
EKVX; first compound 0.4 µM
  relative viability: 0.336
EKVX; first compound 1.265 µM
  relative viability: 0.368
NCI-H2009; first compound 0.04 µM
  relative viability: 0.411
NCI-H2009; first compound 0.1265 µM
  relative viability: 0.415
NCI-H2009; first compound 0.4 µM
  relative viability: 0.398
NCI-H2009; first compound 1.265 µM
  relative viability: 0.347
NCI-H2405; first compound 0.04 µM
  relative viability: 0.71
NCI-H2405; first compound 0.1265 µM
  relative viability: 0.762
NCI-H2405; first compound 0.4 µM
  relative viability: 0.676
NCI-H2405; first compound 1.265 µM
  relative viability: 0.515
NCI-H596; first compound 0.04 µM
  relative viability: 1.05
NCI-H596; first compound 0.1265 µM
  relative viability: 0.933
NCI-H596; first compound 0.4 µM
  relative viability: 1.01
NCI-H596; first compound 1.265 µM
  relative viability: 1.74
NCI-H647; first compound 0.04 µM
  relative viability: 0.535
NCI-H647; first compound 0.1265 µM
  relative viability: 0.409
NCI-H647; first compound 0.4 µM
  relative viability: 0.388
NCI-H647; first compound 1.265 µM
  relative viability: 0.283
LOU-NH91; first compound 0.04 µM
  relative viability: 0.815
LOU-NH91; first compound 0.1265 µM
  relative viability: 0.859
LOU-NH91; first compound 0.4 µM
  relative viability: 0.832
LOU-NH91; first compound 1.265 µM
  relative viability: 0.718
BEN; first compound 0.04 µM
  relative viability: 0.621
BEN; first compound 0.1265 µM
  relative viability: 0.901
BEN; first compound 0.4 µM
  relative viability: 0.692
BEN; first compound 1.265 µM
  relative viability: 0.585
LC-2-ad; first compound 0.04 µM
  relative viability: 0.718
LC-2-ad; first compound 0.1265 µM
  relative viability: 0.756
LC-2-ad; first compound 0.4 µM
  relative viability: 0.737
LC-2-ad; first compound 1.265 µM
  relative viability: 0.651
NCI-H2170; first compound 0.04 µM
  relative viability: 0.459
NCI-H2170; first compound 0.1265 µM
  relative viability: 0.478
NCI-H2170; first compound 0.4 µM
  relative viability: 0.437
NCI-H2170; first compound 1.265 µM
  relative viability: 0.437
NCI-H2342; first compound 0.04 µM
  relative viability: 0.724
NCI-H2342; first compound 0.1265 µM
  relative viability: 0.663
NCI-H2342; first compound 0.4 µM
  relative viability: 0.836
NCI-H2342; first compound 1.265 µM
  relative viability: 0.731
NCI-H1437; first compound 0.04 µM
  relative viability: 0.533
NCI-H1437; first compound 0.1265 µM
  relative viability: 0.572
NCI-H1437; first compound 0.4 µM
  relative viability: 0.517
NCI-H1437; first compound 1.265 µM
  relative viability: 0.336
SK-MES-1; first compound 0.04 µM
  relative viability: 0.335
SK-MES-1; first compound 0.1265 µM
  relative viability: 0.398
SK-MES-1; first compound 0.4 µM
  relative viability: 0.363
SK-MES-1; first compound 1.265 µM
  relative viability: 0.328
HCC-827; first compound 0.04 µM
  relative viability: 0.263
HCC-827; first compound 0.1265 µM
  relative viability: 0.316
HCC-827; first compound 0.4 µM
  relative viability: 0.273
HCC-827; first compound 1.265 µM
  relative viability: 0.337
NCI-H1734; first compound 0.04 µM
  relative viability: 0.528
NCI-H1734; first compound 0.1265 µM
  relative viability: 0.499
NCI-H1734; first compound 0.4 µM
  relative viability: 0.461
NCI-H1734; first compound 1.265 µM
  relative viability: 0.437
HARA; first compound 0.04 µM
  relative viability: 0.372
HARA; first compound 0.1265 µM
  relative viability: 0.643
HARA; first compound 0.4 µM
  relative viability: 0.477
HARA; first compound 1.265 µM
  relative viability: 0.354
NCI-H2087; first compound 0.04 µM
  relative viability: 0.263
NCI-H2087; first compound 0.1265 µM
  relative viability: 0.273
NCI-H2087; first compound 0.4 µM
  relative viability: 0.351
NCI-H2087; first compound 1.265 µM
  relative viability: 0.364
NCI-H1792; first compound 0.04 µM
  relative viability: 0.515
NCI-H1792; first compound 0.1265 µM
  relative viability: 0.51
NCI-H1792; first compound 0.4 µM
  relative viability: 0.543
NCI-H1792; first compound 1.265 µM
  relative viability: 0.457
SK-LU-1; first compound 0.04 µM
  relative viability: 0.633
SK-LU-1; first compound 0.1265 µM
  relative viability: 0.587
SK-LU-1; first compound 0.4 µM
  relative viability: 0.592
SK-LU-1; first compound 1.265 µM
  relative viability: 0.508
NCI-H1355; first compound 0.04 µM
  relative viability: 0.337
NCI-H1355; first compound 0.1265 µM
  relative viability: 0.331
NCI-H1355; first compound 0.4 µM
  relative viability: 0.408
NCI-H1355; first compound 1.265 µM
  relative viability: 0.307
